In patent publication US20240336602A1 (Katholieke Universiteit Leuven, priority 2020, published 2024) one finds IC50 data, which are given here for 33 compounds.

Each structure is given as a SMILES string. Bounds are passed on as bounds.

The target of the first assay is T1, mouse TRPM3a2 (mTRPM3) ion channel (Mus musculus, UniProt J9SQF3).
T1 construct: expressed in transfected cells; host or cells: flip-in HEK293
T1 sequence (J9SQF3 1-1709 isoform J9SQF3-12): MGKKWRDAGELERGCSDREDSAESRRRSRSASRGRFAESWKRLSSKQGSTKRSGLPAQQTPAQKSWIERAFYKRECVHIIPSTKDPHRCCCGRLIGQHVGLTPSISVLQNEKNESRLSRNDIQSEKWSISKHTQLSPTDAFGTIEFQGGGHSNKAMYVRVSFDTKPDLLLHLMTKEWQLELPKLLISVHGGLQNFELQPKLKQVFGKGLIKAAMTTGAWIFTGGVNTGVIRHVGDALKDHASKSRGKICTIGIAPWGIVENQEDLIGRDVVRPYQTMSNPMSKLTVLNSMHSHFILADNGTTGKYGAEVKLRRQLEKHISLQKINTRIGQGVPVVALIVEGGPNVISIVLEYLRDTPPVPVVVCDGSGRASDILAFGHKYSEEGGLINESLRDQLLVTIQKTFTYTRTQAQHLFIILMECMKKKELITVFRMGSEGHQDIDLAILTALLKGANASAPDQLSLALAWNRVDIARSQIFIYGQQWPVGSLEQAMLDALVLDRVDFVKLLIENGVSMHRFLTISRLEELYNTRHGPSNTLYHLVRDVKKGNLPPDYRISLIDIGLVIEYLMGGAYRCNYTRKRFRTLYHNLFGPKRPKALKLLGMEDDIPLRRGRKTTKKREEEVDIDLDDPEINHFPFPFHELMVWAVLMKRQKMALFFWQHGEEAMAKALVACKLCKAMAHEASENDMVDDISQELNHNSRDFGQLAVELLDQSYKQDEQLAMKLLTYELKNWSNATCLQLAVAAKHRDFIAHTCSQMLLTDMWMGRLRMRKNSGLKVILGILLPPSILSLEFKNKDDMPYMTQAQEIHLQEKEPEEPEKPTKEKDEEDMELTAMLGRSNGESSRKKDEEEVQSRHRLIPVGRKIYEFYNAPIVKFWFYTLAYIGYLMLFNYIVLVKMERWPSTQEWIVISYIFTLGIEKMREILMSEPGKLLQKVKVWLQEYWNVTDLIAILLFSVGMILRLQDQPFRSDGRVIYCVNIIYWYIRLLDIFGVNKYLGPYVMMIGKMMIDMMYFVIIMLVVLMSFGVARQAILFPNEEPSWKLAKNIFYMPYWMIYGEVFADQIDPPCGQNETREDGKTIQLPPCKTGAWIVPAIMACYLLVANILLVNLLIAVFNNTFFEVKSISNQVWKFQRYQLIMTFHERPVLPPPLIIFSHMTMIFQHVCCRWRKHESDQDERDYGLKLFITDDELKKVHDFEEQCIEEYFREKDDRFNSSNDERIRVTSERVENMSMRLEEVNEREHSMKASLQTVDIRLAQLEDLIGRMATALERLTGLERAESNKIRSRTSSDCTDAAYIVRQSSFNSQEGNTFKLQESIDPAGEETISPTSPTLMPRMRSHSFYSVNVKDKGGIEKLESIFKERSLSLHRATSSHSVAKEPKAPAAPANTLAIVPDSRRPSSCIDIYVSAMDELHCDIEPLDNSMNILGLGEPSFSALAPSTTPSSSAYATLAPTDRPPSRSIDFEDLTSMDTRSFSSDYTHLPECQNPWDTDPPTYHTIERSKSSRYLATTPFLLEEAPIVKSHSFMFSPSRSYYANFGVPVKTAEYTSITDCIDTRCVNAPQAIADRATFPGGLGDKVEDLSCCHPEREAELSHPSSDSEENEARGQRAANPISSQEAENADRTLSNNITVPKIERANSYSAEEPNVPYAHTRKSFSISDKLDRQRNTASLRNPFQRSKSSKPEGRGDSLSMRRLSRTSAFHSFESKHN
Description: TRPM3 ion channel driven Ca2+ uptake, Fluo-4 AM assay (PS-stimulated, overexpressing flip-in HEK293 cells). Format: cell-based. The following applies: PS (50 μM) stimulated Ca2+ influx, HEK293, cpds 200-299. The essentials:
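Flip-in HEK293 cells overexpressing mTRPM3α2, loaded with Fluo-4 AM, were added to wells with compound plus 50 μM pregnenolone sulfate in Ca2+-containing Krebs buffer and read immediately (ex 485/em 535 nm). Percent inhibition was scaled between PS-plus-vehicle and positive-control-inhibitor signals.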
As a reminder, the IC50 is the concentration that inhibits the measured activity by half. Read a low IC50 as greater potency in that assay. The compound `Cc1ncc(COc2ccc3oc(C)c(C(=O)N[C@@H](CO)C(=O)N4CCC(F)(F)C4)c3c2)s1` [cpd 277, (S)-N-(1-(3,3-difluoropyrrolidin-1-yl)-3-hydroxy-1-oxopropan-2-yl)-2-methyl-5-((2-methylthiazol-5-yl)methoxy)benzofuran-3-carboxamide] yielded an IC50 of 1000 to 20000 nM.

Still in this assay, the particulars now being: PS (50 μM) stimulated Ca2+ influx, HEK293, cpds 300-399.
Consider `Cc1ncc(COc2ccc3oc(C)c(C(=O)N[C@@H](CO)C(=O)N4CCCC4)c3c2)s1` [cpd 307, (S)-N-(3-hydroxy-1-oxo-1-(pyrrolidin-1-yl)propan-2-yl)-2-methyl-5-((2-methylthiazol-5-yl)methoxy)benzofuran-3-carboxamide], for which the IC50 is 1000 to 20000 nM.
Consider `Cc1ncsc1COc1ccc2oc(C(F)F)c(C(=O)NC3(CO)CC3)c2c1` [cpd 308, 2-(difluoromethyl)-N-(1-(hydroxymethyl)cyclopropyl)-5-((4-methylthiazol-5-yl)methoxy)benzofuran-3-carboxamide], for which the IC50 was in the range of 1000 to 20000 nM.
On the same count and under the same terms, the value for `Cc1ncsc1COc1ccc2oc(C(F)F)c(C(=O)NC3(CO)COC3)c2c1` [cpd 309, 2-(difluoromethyl)-N-(3-(hydroxymethyl)oxetan-3-yl)-5-((4-methylthiazol-5-yl)methoxy)benzofuran-3-carboxamide] was 1000 to 20000 nM.
On the same count and under the same terms, then `COc1ncccc1COc1ccc2oc(C(F)F)c(C(=O)NC3(CO)CCOCC3)c2c1` [cpd 312, 2-(difluoromethyl)-N-(4-(hydroxymethyl)tetrahydro-2H-pyran-4-yl)-5-((2-methoxypyridin-3-yl)methoxy)benzofuran-3-carboxamide], with 1000 to 20000 nM.
Still for that read-out and setting: the value for `Cc1ncsc1COc1ccc2oc(C)c(C(=O)NC3(CO)CC3)c2c1F` [cpd 327, 4-fluoro-N-(1-(hydroxymethyl)cyclopropyl)-2-methyl-5-((4-methylthiazol-5-yl)methoxy)benzofuran-3-carboxamide] was 1000 to 20000 nM; that for `Cc1oc2ccc(OCc3nccn3CC(F)F)cc2c1C(=O)NC1(CO)CCOCC1` [cpd 331, 5-((1-(2,2-difluoroethyl)-1H-imidazol-2-yl)methoxy)-N-(4-(hydroxymethyl)tetrahydro-2H-pyran-4-yl)-2-methylbenzofuran-3-carboxamide] was 1000 to 20000 nM; that for `Cc1oc2ccc(OCc3ncccc3C(F)F)cc2c1C(=O)NC1(CO)CCOCC1` [cpd 351, 5-((3-(difluoromethyl)pyridin-2-yl)methoxy)-N-(4-(hydroxymethyl)tetmhydro-2H-pyran-4-yl)-2-methylbenzofuran-3-carboxamide] was 1000 to 20000 nM.
Take `Cc1ncsc1COc1cc(F)c2oc(C)c(C(=O)NC3(CO)CC3)c2c1` [cpd 366, 7-fluoro-N-(1-(hydroxymethyl)cyclopropyl)-2-methyl-5-((4-methylthiazol-5-yl)methoxy)benzofuran-3-carboxamide]: the IC50 is 1000 to 20000 nM.
Same read-out and setting: then `Cc1oc2c(F)cc(OCc3cccnc3O)cc2c1C(=O)NC1(CO)CCOCC1` [cpd 368, 7-fluoro-N-(4-(hydroxymethyl)tetrahydro-2H-pyran-4-yl)-5-((2-hydroxypyridin-3-yl)methoxy)-2-methylbenzofuran-3-carboxamide], with 1000 to 20000 nM; and `COc1ncccc1COc1cc(F)c2oc(C)c(C(=O)NC3(CO)CCOCC3)c2c1` [cpd 369, 7-fluoro-N-(4-(hydroxymethyl)tetrahydro-2H-pyran-4-yl)-5-((2-methoxypyridin-3-yl)methoxy)-2-methylbenzofuran-3-carboxamide], with 1000 to 20000 nM.
Same read-out and setting: the value for `Cc1oc2ccc(OCc3ccnn3CC(F)F)cc2c1C(=O)N[C@H](C(N)=O)[C@@H](C)O` [cpd 381, N-((2S,3R)-1-amino-3-hydroxy-1-oxobutan-2-yl)-5-((1-(2,2-difluoroethyl)-1H-pyrazol-5-yl)methoxy)-2-methylbenzofuran-3-carboxamide] was at most 1000 nM.

The same assay, now with this note: PS (50 μM) stimulated, cpd 001-199.
As for `Cc1oc2ccc(OCc3ncccc3C(F)(F)F)cc2c1C(=O)NC1CCN(C(=O)OC(C)(C)C)CC1(F)F` (stereo not drawn) [cpd 096, tert-butyl 3,3-difluoro-4-(2-methyl-5-((3-(trifluoromethyl)pyridin-2-yl)methoxy)benzofuran-3-carboxamido)piperidine-1-carboxylate], the IC50 fell in the range of 1000 to 20000 nM.
In turn, `Cc1oc2ccc(OCc3ccccn3)cc2c1C(=O)NC1CCN(C(=O)OC(C)(C)C)CC1(F)F` (stereo not drawn) [cpd 097, tert-butyl 3,3-difluoro-4-(2-methyl-5-(pyridin-2-ylmethoxy)benzofuran-3-carboxamido)piperidine-1-carboxylate] had an IC50 of 1000 to 20000 nM.
For `Cc1oc2ccc(OCc3cccnc3C(F)(F)F)cc2c1C(=O)NC1CCN(C(=O)OC(C)(C)C)CC1(F)F` (stereo not drawn) [cpd 098, tert-butyl 3,3-difluoro-4-(2-methyl-5-((2-(trifluoromethyl)pyridin-3-yl)methoxy)benzofuran-3-carboxamido)piperidine-1-carboxylate], the IC50 is 1000 to 20000 nM.
`Cc1ccncc1COc1ccc2oc(C)c(C(=O)O)c2c1` [cpd 099, 2-methyl-5-((4-methylpyridin-3-yl)methoxy)benzofuran-3-carboxylic acid] registered an IC50 of 1000 to 20000 nM.
`COc1ncccc1COc1ccc2oc(C)c(C(=O)O)c2c1` [cpd 100, 5-((2-methoxypyridin-3-yl)methoxy)-2-methylbenzofuran-3-carboxylic acid]: the IC50 was 1000 to 20000 nM.
For `Cc1ncsc1COc1ccc2oc(C)c(C(=O)O)c2c1` [cpd 102, 2-methyl-5-((4-methylthiazol-5-yl)methoxy)benzofuran-3-carboxylic acid], the IC50 lay within 1000 to 20000 nM.
With `Cc1oc2ccc(OCc3cccnc3C(F)(F)F)cc2c1C(=O)n1ccc(N)n1` [cpd 178, (3-amino-1H-pyrazol-1-yl)(2-methyl-5-((2-(trifluoromethyl)pyridin-3-yl)methoxy)benzofuran-3-yl)methanone], the IC50 fell in the range of 1000 to 20000 nM.
Still for that read-out and setting: then `Cc1oc2ccc(OCc3cccnc3C(F)(F)F)cc2c1C(=O)n1cc(N)cn1` [cpd 181, (4-amino-1H-pyrazol-1-yl)(2-methyl-5-((2-(trifluoromethyl)pyridin-3-yl)methoxy)benzofuran-3-yl)methanone], with 1000 to 20000 nM; and `Cc1ncsc1COc1cc(Cl)c2oc(C)c(C(=O)NC3(CO)CCOCC3)c2c1` [cpd 187, 7-chloro-N-(4-(hydroxymethyl)tetrahydro-2H-pyran-4-yl)-2-methyl-5-((4-methylthiazol-5-yl)-methoxy)benzofuran-3-carboxamide], with 1000 to 20000 nM; and `Cc1oc2ccc(OCc3cccnc3C(F)(F)F)cc2c1C(=O)NCC1(N)COC1` [cpd 189, N-((3-aminooxetan-3-yl)methyl)-2-methyl-5-((2-(trifluoromethyl)pyridin-3-yl)methoxy)-benzofuran-3-carboxamide], with 1000 to 20000 nM.
The same measure, in the same setting: the value for `Cc1ncsc1COc1ccc2oc(C)c(C(=O)NC3CC4(CNC4)C3)c2c1` [cpd 190, 2-methyl-5-((4-methylthiazol-5-yl)methoxy)-N-(2-azaspiro[3.3]heptan-6-yl)benzofuran-3-carboxamide] was 1000 to 20000 nM; that for `Cc1ncsc1COc1ccc2oc(C(F)F)c(C(=O)NC3(CO)CCOCC3)c2c1` [cpd 197, 2-(difluoromethyl)-N-(4-(hydroxymethyl)tetrahydro-2H-pyran-4-yl)-5-((4-methylthiazol-5-yl)-methoxy)benzofuran-3-carboxamide] was 1000 to 20000 nM.

The same assay, now with this note: PS (50 μM) stimulated, cpds. 400-499.
Regarding `Cc1oc2ccc(OCc3cccn(C)c3=O)cc2c1C(=O)NC1CCN(CCO)C1=O` (stereo not drawn) [cpd 405, N-(1-(2-hydroxyethyl)-2-oxopyrrolidin-3-yl)-2-methyl-5-((1-methyl-2-oxo-1,2-dihydropyridin-3-yl)methoxy)benzofuran-3-carboxamide], the IC50 was at least 20000 nM.
`Cc1oc2ccc(OCc3cccnc3O)cc2c1C(=O)NC1(C(N)=O)CC1` [cpd 479, N-(1-carbamoylcyclopropyl)-5-((2-hydroxypyridin-3-yl)methoxy)-2-methylbenzofuran-3-carboxamide] registered a half-maximal inhibitory concentration (IC50) of 1000 to 20000 nM.

The assay is the same for the next values; noted with them: PS (50 μM) stimulated, cpds. 500-599.
For the compound `Cc1ncsc1COc1ccc2oc(C)c(C(=O)NC(C#N)C(N)=O)c2c1` (stereo not drawn) [cpd 502, N-(2-amino-1-cyano-2-oxoethyl)-2-methyl-5-((4-methylthiazol-5-yl)methoxy)benzofuran-3-carboxamide], the IC50 was at most 1000 nM.
Regarding `Cc1ncsc1COc1ccc2oc(C)c(C(=O)NCC(N)=O)c2c1` [cpd 503, N-(2-amino-2-oxoethyl)-2-methyl-5-((4-methylthiazol-5-yl)methoxy)benzofuran-3-carboxamide], the IC50 was at most 1000 nM.
The same measure, in the same setting: the value for `Cc1ncsc1COc1ccc2oc(C)c(C(=O)NC3(CN)COC3)c2c1` [cpd 507, N-(3-(aminomethyl)oxetan-3-yl)-2-methyl-5-((4-methylthiazol-5-yl)methoxy)benzofuran-3-carboxamide] was 1000 to 20000 nM.
Still for that read-out and setting: the value for `Cc1oc2ccc(OCc3nccn3C)cc2c1C(=O)NC1(CO)COC1` [cpd 523, N-(3-(hydroxymethyl)oxetan-3-yl)-2-methyl-5-((1-methyl-1H-imidazol-2-yl)methoxy)benzofuran-3-carboxamide] was 1000 to 20000 nM; that for `Cc1oc2ccc(OCc3nccn3C)cc2c1C(=O)NC1(C(N)=O)COC1` [cpd 578, N-(3-carbamoyloxetan-3-yl)-2-methyl-5-((1-methyl-1H-imidazol-2-yl)methoxy)benzofuran-3-carboxamide] was 1000 to 20000 nM.

The same assay, now with this note: PS (50 μM) stimulated, cpds. 600-666.
`Cc1ncsc1COc1ccc2oc(C)c(C(=O)NC3(CO)CCOCC3)c2c1C` [cpd 603, N-(4-(hydroxymethyl)tetrahydro-2H-pyran-4-yl)-2,4-dimethyl-5-((4-methylthiazol-5-yl)methoxy)benzofuran-3-carboxamide]: the IC50 lay in the range of 1000 to 20000 nM.
Still for that read-out and setting: then `Cc1oc2ccc(OCc3ncn(C)n3)cc2c1C(=O)NC1(CO)CCOCC1` [cpd 606, N-(4-(hydroxymethyl)tetrahydro-2H-pyran-4-yl)-2-methyl-5-((1-methyl-1H-1,2,4-triazol-3-yl)methoxy)benzofuran-3-carboxamide], with 1000 to 20000 nM.
